This note sets out measurements from patent US9505728B2, “Triazolone compounds and uses thereof” (INCEPTION 2, INC., priority 2012, dated 2016).

Assay type in all cases: cell-based
For experiment [1], the target named is T1, PPAR beta/delta (Homo sapiens, UniProt Q03181).
T1 construct: host or cells: engineered reporter cells of the kit
T1 sequence (Q03181 1-441): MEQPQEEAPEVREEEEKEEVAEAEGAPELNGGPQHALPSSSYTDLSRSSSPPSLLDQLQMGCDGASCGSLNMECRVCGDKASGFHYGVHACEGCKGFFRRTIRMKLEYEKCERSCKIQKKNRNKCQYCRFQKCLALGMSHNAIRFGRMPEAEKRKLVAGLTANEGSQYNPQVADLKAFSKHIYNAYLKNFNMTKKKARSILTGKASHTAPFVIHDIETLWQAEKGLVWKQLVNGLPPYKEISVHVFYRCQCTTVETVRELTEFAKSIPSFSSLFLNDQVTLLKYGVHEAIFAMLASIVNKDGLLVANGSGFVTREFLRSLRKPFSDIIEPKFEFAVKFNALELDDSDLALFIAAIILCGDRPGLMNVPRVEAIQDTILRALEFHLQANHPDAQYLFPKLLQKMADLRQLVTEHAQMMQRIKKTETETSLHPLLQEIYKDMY
Nature of the experiment: Target selectivity counterscreen, PPAR β/δ reporter assay. As to conditions: receptor agonist at ~EC80. How it is done:
(§1) Target Selectivity Assays
(§2) To determine species selectivity, a Mouse PPARα Reporter Assay System was used (Indigo Biosciences, Cat. #M00111). Activity of test compounds to antagonize or agonize other isoforms of human PPAR, for example β/δ and γ, were assessed using the corresponding kits from Indigo Biosciences (Cat. #IB00121 and #IB00101, respectively). In addition to PPAR activity, compounds were also screened for activity against other nuclear hormone receptors including Estrogen Receptor β, Glucocorticoid Receptor and Thyroid Receptor β using commercially available kits (Indigo Biosciences, Cat. #IB00411, IB00201 and IB01101, respectively). Each assay system from Indigo Biosciences uses technology analogous to the human PPARα kit, with the variance being that the cells used for each assay were engineered to over-express the receptor of interest. In addition, the appropriate receptor agonist (included with each kit) was used at ˜EC80 for assays in which antagonist potency was being assessed.

For experiment [2], the target named is T2, Glucocorticoid Receptor (Homo sapiens, UniProt P04150).
T2 construct: host or cells: engineered reporter cells of the kit
T2 sequence (P04150 1-777): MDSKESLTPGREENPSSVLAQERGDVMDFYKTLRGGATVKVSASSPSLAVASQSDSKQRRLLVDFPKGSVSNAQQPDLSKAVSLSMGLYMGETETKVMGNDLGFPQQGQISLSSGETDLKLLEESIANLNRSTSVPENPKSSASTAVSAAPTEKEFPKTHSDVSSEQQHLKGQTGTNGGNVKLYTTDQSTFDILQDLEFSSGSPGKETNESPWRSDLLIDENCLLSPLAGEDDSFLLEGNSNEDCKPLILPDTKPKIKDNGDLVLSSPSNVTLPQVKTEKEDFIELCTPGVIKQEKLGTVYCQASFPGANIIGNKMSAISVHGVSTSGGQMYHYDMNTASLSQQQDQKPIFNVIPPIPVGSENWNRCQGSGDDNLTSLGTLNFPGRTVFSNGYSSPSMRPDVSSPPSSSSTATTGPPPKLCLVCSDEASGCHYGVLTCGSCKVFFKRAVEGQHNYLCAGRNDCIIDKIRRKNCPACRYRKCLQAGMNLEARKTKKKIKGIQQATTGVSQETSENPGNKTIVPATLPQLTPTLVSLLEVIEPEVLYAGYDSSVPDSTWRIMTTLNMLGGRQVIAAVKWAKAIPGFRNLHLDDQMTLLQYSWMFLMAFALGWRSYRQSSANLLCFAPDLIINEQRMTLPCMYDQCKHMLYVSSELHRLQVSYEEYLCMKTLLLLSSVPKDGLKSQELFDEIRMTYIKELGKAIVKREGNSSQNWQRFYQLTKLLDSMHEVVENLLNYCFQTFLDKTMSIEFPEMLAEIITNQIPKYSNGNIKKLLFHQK
Nature of the experiment: Target selectivity counterscreen, Glucocorticoid Receptor reporter assay. The following applies: receptor agonist at ~EC80. How it is done:
as §1, §2

Experiment [3] has as its target T3, Thyroid Receptor β (Homo sapiens, UniProt P10828).
T3 construct: host or cells: engineered reporter cells of the kit
T3 sequence (P10828 1-461): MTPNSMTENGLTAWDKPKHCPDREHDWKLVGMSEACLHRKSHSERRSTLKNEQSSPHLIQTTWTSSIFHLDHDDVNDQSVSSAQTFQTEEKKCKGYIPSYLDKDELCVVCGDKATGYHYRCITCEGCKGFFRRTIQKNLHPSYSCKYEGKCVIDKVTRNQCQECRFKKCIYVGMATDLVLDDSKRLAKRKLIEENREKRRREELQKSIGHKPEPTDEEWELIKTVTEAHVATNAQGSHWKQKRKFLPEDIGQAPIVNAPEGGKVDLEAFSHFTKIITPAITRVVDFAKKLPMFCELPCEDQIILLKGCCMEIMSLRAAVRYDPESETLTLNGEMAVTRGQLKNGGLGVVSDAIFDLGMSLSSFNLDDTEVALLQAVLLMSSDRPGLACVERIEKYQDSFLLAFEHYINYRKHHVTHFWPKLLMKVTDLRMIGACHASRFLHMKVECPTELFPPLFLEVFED
Nature of the experiment: Target selectivity counterscreen, Thyroid Receptor β reporter assay. As to conditions: receptor agonist at ~EC80. How it is done: as §1, §2
In general terms: The purpose of a counterscreen is to sort out artefacts and off-target activity.

In experiment [4] the target is T4, PPAR gamma (Homo sapiens, UniProt P37231).
T4 construct: host or cells: engineered reporter cells of the kit
T4 sequence (P37231 1-505): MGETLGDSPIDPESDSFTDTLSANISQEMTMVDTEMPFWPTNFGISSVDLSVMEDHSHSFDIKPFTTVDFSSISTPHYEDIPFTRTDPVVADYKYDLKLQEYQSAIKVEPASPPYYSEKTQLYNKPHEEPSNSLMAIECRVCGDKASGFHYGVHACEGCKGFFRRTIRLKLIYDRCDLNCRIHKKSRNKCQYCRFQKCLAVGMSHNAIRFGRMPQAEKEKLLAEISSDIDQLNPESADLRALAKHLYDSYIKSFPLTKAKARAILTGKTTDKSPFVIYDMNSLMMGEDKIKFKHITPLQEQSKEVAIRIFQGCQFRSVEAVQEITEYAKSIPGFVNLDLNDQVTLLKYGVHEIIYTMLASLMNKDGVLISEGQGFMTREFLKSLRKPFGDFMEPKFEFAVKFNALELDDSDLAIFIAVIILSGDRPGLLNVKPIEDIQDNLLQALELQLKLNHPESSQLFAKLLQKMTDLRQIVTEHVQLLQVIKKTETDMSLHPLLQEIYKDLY
Nature of the experiment: Target selectivity counterscreen, PPAR γ reporter assay. The following applies: receptor agonist at ~EC80. The procedure: as §1, §2

Experiment [5] addresses T5, Estrogen Receptor β (Homo sapiens, UniProt Q92731).
T5 construct: host or cells: engineered reporter cells of the kit
Nature of the experiment: Target selectivity counterscreen, Estrogen Receptor β reporter assay. The following applies: receptor agonist at ~EC80. The procedure:
as §1, §2

The target in experiment [6] is T6, Human PPARα (Homo sapiens, UniProt Q07869).
T6 construct: host or cells: proprietary non-human mammalian cells
T6 sequence (Q07869 1-468): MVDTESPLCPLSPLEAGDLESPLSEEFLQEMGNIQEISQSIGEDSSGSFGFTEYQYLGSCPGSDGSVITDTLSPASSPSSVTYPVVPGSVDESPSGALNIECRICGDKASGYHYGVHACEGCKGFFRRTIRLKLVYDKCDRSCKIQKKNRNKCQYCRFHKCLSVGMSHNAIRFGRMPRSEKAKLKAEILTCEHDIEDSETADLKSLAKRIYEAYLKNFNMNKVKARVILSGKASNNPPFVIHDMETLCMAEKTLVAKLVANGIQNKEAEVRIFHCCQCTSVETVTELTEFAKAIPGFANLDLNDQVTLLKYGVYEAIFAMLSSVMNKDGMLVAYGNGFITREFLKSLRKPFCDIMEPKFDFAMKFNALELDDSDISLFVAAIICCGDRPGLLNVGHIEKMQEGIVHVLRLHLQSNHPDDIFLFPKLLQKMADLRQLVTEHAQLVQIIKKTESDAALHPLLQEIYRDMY
Nature of the experiment: Human PPARα Reporter Assay (luciferase). An outline of the steps: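 Agonist or antagonist activity read as luciferase light from engineered reporter cells carrying human PPARα and a responsive reporter gene. Cells got compound immediately on dispensing, incubated overnight, then treatment media swapped for luciferase detection reagent.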

The mark [7] stands for this setting: human PPARα reporter cells, overnight incubation, antagonism, read-out: Luciferase IC50.

Like-named read-outs stand apart in the source and are kept apart here.

T5 sequence (Q92731 whole entry): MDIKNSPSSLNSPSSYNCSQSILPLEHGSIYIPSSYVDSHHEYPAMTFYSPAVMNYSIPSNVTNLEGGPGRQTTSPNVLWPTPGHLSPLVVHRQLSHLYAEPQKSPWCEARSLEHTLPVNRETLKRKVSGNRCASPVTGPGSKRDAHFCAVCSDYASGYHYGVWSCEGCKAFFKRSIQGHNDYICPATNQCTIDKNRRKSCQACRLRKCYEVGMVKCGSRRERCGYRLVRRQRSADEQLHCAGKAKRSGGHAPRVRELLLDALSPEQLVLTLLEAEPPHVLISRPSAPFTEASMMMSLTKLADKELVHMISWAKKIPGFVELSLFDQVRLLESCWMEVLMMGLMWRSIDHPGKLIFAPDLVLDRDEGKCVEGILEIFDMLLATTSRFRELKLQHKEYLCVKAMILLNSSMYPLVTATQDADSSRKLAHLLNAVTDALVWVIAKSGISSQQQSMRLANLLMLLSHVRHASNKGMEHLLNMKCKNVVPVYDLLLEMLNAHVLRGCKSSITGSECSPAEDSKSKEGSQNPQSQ

For the compound `CCn1c(CCCc2ccc(-c3cccc(CC(=O)O)c3)cc2)nn(Cc2ccccc2)c1=O` [Example 23, 2-(4′-(3-(1-Benzyl-4-ethyl-5-oxo-4,5-dihydro-1H-1,2,4-triazol-3-yl)propyl)-[1,1′-biphenyl]-3-yl)acetic acid], the IC50 (commonly the concentration at which inhibition is half-maximal) in experiment [1] was over 50000 nM; in experiment [2] it was over 10000 nM; in experiment [3], over 10000 nM; in experiment [4], over 50000 nM; in experiment [5], 17500 nM; in experiment [6] (counterscreen table, antagonist potency, read-out: PPAR alpha IC50), 25 nM. Also, in experiment [6] (setting [7]), the half-inhibitory concentration (IC50) is 7310 nM.

As for `CCn1c(CCCc2ccc(-c3csc(C4(F)COC4)n3)cc2)nn(Cc2ccc(C(C)(C)C)cc2)c1=O` [Example 201, 1-(4-(tert-Butyl)benzyl)-4-ethyl-3-(3-(4-(2-(3-fluorooxetan-3-yl)thiazol-4-yl)phenyl)propyl)-1H-1,2,4-triazol-5(4H)-one], the 50% inhibitory concentration (IC50) in experiment [6] (setting [7]) came to 533 nM.

In the case of `CCn1c(CCCc2ccc(-c3cnc(C4(F)COC4)s3)cc2)nn(Cc2ccc(C(C)(C)C)cc2)c1=O` [Example 202, 1-(4-(tert-Butyl)benzyl)-4-ethyl-3-(3-(4-(2-(3-fluorooxetan-3-yl)thiazol-5-yl)phenyl)propyl)-1H-1,2,4-triazol-5(4H)-one], the IC50 in experiment [6] (setting [7]) worked out at 51 nM.

For `CCn1c(CCCc2ccc(-c3csc(C4(O)COC4)n3)cc2)nn(Cc2ccc(C(C)(C)C)cc2)c1=O` [Example 203, 1-(4-(tert-Butyl)benzyl)-4-ethyl-3-(3-(4-(2-(3-hydroxyoxetan-3-yl)thiazol-4-yl)phenyl)propyl)-1H-1,2,4-triazol-5(4H)-one], in experiment [6] (setting [7]), the IC50 was 873 nM.

Take `CCn1c(CCCc2ccc(-c3cnc(C4(O)COC4)s3)cc2)nn(Cc2ccc(C(C)(C)C)cc2)c1=O` [Example 204, 1-(4-(tert-Butyl)benzyl)-4-ethyl-3-(3-(4-(2-(3-hydroxyoxetan-3-yl)thiazol-5-yl)phenyl)propyl)-1H-1,2,4-triazol-5(4H)-one]: the 50% inhibitory concentration (IC50) in experiment [6] (setting [7]) amounted to 50 nM.
